For 23 compounds, EC50 and Emax results are on record in patent US20250333371A1, “COMPOUNDS” (PSYLO PTY LTD, priority 2022, published 2025).

Like-named read-outs stand apart in the source and are kept apart here. A value given as a limit tells only on which side of the number the result lay.

Common to all, as to assay type: cell-based
The target in one assay is T1, 5-HT2A (Homo sapiens, UniProt P28223).
T1 construct: host or cells: HEK293
Description: FLIPR Ca2+ flux functional assay, 5-HT2A receptor (stably transfected HEK293). The procedure:
(§1) Activity at 5-HT2A, 5-HT2B and 5-HT2C receptors was determined using a FLIPR Ca^2+ flux assay at WuXi AppTec Co. Ltd. (Hong Kong) Discovery Biology Unit according to their standard protocols. Briefly, stably transfected cells expressing the receptor of interest (HEK293 for 5-HT2A and 5-HT2C; CHO-K1 for 5-HT2B) were grown and plated in a 384 well plate and incubated at 37° C. and 5% CO2 overnight. A 250 mM stock solution of probenecid in FLIPR calcium assay buffer (10 mL) was freshly prepared and combined with a fluorescent dye (Fluo-4 Direct) to give a final assay concentration of 2.5 mM. Reference compounds were 4-fold serially diluted and the screening compounds were 3-fold serially diluted in 100% DMSO for 10 points using Agilent Bravo, and 750 nL was added to a 384 well compound plate using Echo along with 30 μL assay buffer. The fluorescent dye was then added to the assay plate along with assay buffer to a final volume of 40 μL. The cell plate was incubated for 50 min at 37° C. and 5% CO2 and placed into the FLIPR Tetra along with the compound plate. 10 μL of references and compounds were then transferred from the compound plate into the cell plate and the fluorescent signal was read.
A general note: Calcium flux is commonly read through the fluorescence of an indicator in the cells.

The next assay concerns the target T2, 5-HT2C (Homo sapiens, UniProt P28335).
T2 construct: host or cells: HEK293
T2 sequence (P28335 33-458): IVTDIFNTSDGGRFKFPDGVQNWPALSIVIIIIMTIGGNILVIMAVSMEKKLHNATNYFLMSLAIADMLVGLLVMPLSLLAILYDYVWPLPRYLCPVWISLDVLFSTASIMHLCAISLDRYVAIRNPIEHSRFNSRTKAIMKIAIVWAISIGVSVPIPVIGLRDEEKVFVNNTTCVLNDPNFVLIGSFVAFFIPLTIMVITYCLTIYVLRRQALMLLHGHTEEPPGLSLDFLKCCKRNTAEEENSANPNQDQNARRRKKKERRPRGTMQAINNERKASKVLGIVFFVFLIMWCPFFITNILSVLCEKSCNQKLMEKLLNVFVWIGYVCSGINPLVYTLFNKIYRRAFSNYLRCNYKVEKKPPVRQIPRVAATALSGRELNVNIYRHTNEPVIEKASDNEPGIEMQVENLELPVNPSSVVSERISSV
Description: FLIPR Ca2+ flux functional assay, 5-HT2C receptor (stably transfected HEK293). The procedure: as §1

A further assay addresses T3, 5-HT2B (Homo sapiens, UniProt P41595).
T3 construct: host or cells: CHO-K1
Description: FLIPR Ca2+ flux functional assay, 5-HT2B receptor (stably transfected CHO-K1). The procedure:
as §1

[1] abbreviates: agonist activity, Ca2+ flux, HEK293.
Setting [2] is: agonist activity, Ca2+ flux, CHO-K1.
Setting [3] is: agonist activity, Ca2+ flux, HEK293, read-out: 5-HT2A EC50.
The mark [4] stands for this setting: agonist activity, Ca2+ flux, HEK293, read-out: 5-HT2C EC50.
Where [5] appears, read: agonist activity, Ca2+ flux, CHO-K1, read-out: 5-HT2B EC50.

T3 sequence (P41595 whole entry): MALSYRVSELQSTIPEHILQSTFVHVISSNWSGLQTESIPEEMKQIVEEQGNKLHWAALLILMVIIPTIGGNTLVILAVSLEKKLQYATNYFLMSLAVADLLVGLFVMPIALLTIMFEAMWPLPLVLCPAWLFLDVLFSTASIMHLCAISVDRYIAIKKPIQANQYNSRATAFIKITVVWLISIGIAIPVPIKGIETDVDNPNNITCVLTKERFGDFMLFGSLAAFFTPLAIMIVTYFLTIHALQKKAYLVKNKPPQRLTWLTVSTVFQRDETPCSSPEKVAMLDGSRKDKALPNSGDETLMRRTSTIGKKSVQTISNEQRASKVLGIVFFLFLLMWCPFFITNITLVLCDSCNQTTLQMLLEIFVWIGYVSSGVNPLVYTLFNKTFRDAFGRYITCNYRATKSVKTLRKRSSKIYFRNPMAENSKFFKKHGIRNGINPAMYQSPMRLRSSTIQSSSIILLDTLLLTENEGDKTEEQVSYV
T1 sequence (P28223 whole entry): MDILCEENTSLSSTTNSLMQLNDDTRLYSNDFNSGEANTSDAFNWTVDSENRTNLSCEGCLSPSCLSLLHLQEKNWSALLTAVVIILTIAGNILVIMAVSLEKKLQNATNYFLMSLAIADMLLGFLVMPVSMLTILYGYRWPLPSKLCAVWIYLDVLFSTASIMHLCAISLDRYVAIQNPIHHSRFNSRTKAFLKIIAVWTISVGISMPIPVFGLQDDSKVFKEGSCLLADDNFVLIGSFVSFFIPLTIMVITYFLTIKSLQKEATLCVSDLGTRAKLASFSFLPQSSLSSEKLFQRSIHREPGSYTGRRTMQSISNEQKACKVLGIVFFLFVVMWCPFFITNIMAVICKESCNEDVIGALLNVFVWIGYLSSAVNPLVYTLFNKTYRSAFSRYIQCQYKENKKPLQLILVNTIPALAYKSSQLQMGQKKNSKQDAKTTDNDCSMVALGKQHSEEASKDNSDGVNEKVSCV

One may read the EC50 as the concentration that produces a half-maximal response. A word on the Emax: it is the maximal effect, on the per cent scale that the assay sets. In the case of `COc1cccc2cccc(CCN(C)C)c12` [Example I-13, 2-(8-methoxynaphthalen-1-yl)-N,N-dimethylethan-1-amine], the EC50 at 5-HT2A was 138 nM; at 5-HT2C, 582 nM; on 5-HT2B it was greater than 10000 nM. Moreover, the Emax at 5-HT2A (setting [1]) was 49%; on 5-HT2C (setting [1]), 58%; at 5-HT2B (setting [2]), 5%.

Regarding `COc1cnc2cccc(CCN(C)C)c2c1` [Example I-9, 2-(3-methoxyquinolin-5-yl)-N,N-dimethylethan-1-amine], the Emax at 5-HT2A (setting [1]) amounted to 39%; on 5-HT2C (setting [1]) it was 65%; on 5-HT2B (setting [2]), 1%. Further, the EC50 was 1840 nM on 5-HT2A (setting [3]), 2390 nM at 5-HT2C (setting [4]) and greater than 10000 nM on 5-HT2B (setting [5]).

For the compound `COc1cccc2cccc(CCN(C)C3CC3)c12` [Example I-30, N-(2-(8-methoxynaphthalen-1-yl)ethyl)-N-methylcyclopropanamine], the Emax on 5-HT2A (setting [1]) was found to be 48%; on 5-HT2C (setting [1]) it was 60%. The half-maximal effective concentration (EC50) stood at 496 nM on 5-HT2A (setting [3]) and 409 nM on 5-HT2C (setting [4]).

For `CCCN(CCC)CCc1cccc2ccc(OC)cc12` [Example I-3, N-(2-(7-methoxynaphthalen-1-yl)ethyl)-N-propylpropan-1-amine], the Emax was found to be 77% on 5-HT2A (setting [1]), 97% at 5-HT2C (setting [1]) and 72% at 5-HT2B (setting [2]). For the same compound, the EC50 at 5-HT2A (setting [3]) stood at 234 nM; on 5-HT2C (setting [4]), 944 nM; at 5-HT2B (setting [5]) it was 225 nM.

Regarding `CN(C)CCc1cccc2ccc(Cl)cc12` [Example I-32, 2-(7-chloronaphthalen-1-yl)-N,N-dimethylethan-1-amine], the EC50 at 5-HT2A stood at 240 nM; on 5-HT2C it was 61 nM. Also, the Emax amounted to 63% on 5-HT2A (setting [1]) and 87% on 5-HT2C (setting [1]).

Take `COc1cccc2cccc(CCN(C)C(C)C)c12` [Example I-28, N-(2-(8-methoxynaphthalen-1-yl)ethyl)-N-methylpropan-2-amine]: the values for the concentration for a half-maximal effect (EC50) at 5-HT2A, at 5-HT2C and on 5-HT2B were 191 nM, 766 nM and greater than 10000 nM, respectively. Also, the Emax on 5-HT2A (setting [1]) was found to be 94%; on 5-HT2C (setting [1]) it was 76%; at 5-HT2B (setting [2]) it was 46%.

Turning to `CC(C)N(C)CCc1cccc2ccc(F)cc12` [Example I-40, N-(2-(7-fluoronaphthalen-1-yl)ethyl)-N-methylpropan-2-amine], the concentration for a half-maximal effect (EC50) is 378 nM on 5-HT2A and 120 nM on 5-HT2C. For the same compound, the values for the Emax at 5-HT2A (setting [1]) and on 5-HT2C (setting [1]) were 68% and 84%, respectively.

Turning to `CCN(C)CCc1cccc2ccc(F)cc12` [Example I-39, N-ethyl-2-(7-fluoronaphthalen-1-yl)-N-methylethan-1-amine], the EC50 on 5-HT2A was 168 nM; at 5-HT2C, 33 nM. Also, the Emax was 58% at 5-HT2A (setting [1]) and 93% on 5-HT2C (setting [1]).

On to `CCN(CC)CCc1cccc2cccc(OC)c12` [Example I-22, N,N-diethyl-2-(8-methoxynaphthalen-1-yl)ethan-1-amine], for which the EC50 was 457 nM at 5-HT2A, 157 nM on 5-HT2C and greater than 10000 nM at 5-HT2B. Besides, the figures for the Emax on 5-HT2A (setting [1]), on 5-HT2C (setting [1]) and on 5-HT2B (setting [2]) were 85%, 95% and 34%, respectively.

As to `CC(C)N(C)CCc1cccc2cccc(O)c12` [Example I-29, 8-(2-(methyl(isopropyl)amino)ethyl)naphthalen-1-ol], the values for the Emax on 5-HT2A (setting [1]) and on 5-HT2C (setting [1]) were 79% and 84%, respectively. Moreover, the values for the 50% effective concentration (EC50) on 5-HT2A (setting [3]) and at 5-HT2C were 36 nM and 54 nM, respectively.

For the compound `CCN(C)CCc1cccc2cccc(O)c12` [Example I-26, 8-(2-(methyl(ethyl)amino)ethyl)naphthalen-1-ol], the Emax on 5-HT2A (setting [1]) was found to be 68%; at 5-HT2C (setting [1]), 86%. Besides, the EC50 at 5-HT2A (setting [3]) came out at 41 nM; at 5-HT2C, 15 nM.

As for `COc1cccc(CNCCc2cccc3ccc(OC)cc23)c1` [Example I-17, N-(3-methoxybenzyl)-2-(7-methoxynaphthalen-1-yl)ethan-1-amine], the Emax came out at 84% on 5-HT2A (setting [1]) and 97% on 5-HT2C (setting [1]). Moreover, the 50% effective concentration (EC50) worked out at 92 nM at 5-HT2A (setting [3]) and 18 nM at 5-HT2C (setting [4]).

As to `COc1ccc2cccc(CCN(C)C)c2c1` [Example I-1, 2-(7-methoxynaphthalen-1-yl)-N,N-dimethylethan-1-amine], the Emax was 79% on 5-HT2A (setting [1]), 82% on 5-HT2C (setting [1]) and -0.99% on 5-HT2B (setting [2]). The EC50 at 5-HT2A (setting [3]) was 96 nM; at 5-HT2C it was 33 nM; at 5-HT2B it was greater than 10000 nM.

Turning to `NCCc1cccc2ccc(F)cc12` [Example I-53, 2-(7-fluoronaphthalen-1-yl)ethan-1-amine], the EC50 on 5-HT2A is 34 nM; at 5-HT2C, 1 nM. The Emax on 5-HT2A (setting [1]) amounted to 83%; on 5-HT2C (setting [1]), 97%.

Turning to `CN(CCc1cccc2cccc(O)c12)C1CC1` [Example I-31, 8-(2-(cyclopropyl(methyl)amino)ethyl)naphthalen-1-ol], the Emax is 64% on 5-HT2A (setting [1]) and 57% at 5-HT2C (setting [1]). Further, the values for the EC50 on 5-HT2A (setting [3]) and at 5-HT2C (setting [4]) were 60 nM and 123 nM, respectively.

Take `COc1ccc2cccc(CCN(C(C)C)C(C)C)c2c1` [Example I-4, N-isopropyl-N-(2-(7-methoxynaphthalen-1-yl)ethyl)propan-2-amine]: the Emax on 5-HT2A (setting [1]) is 111%; at 5-HT2C (setting [1]), 99%; on 5-HT2B (setting [2]), 123%. The EC50 was 446 nM on 5-HT2A (setting [3]), 1260 nM on 5-HT2C (setting [4]) and 1200 nM at 5-HT2B (setting [5]).

On to `CCCN(C)CCc1cccc2ccc(OC)cc12` [Example I-6, N-(2-(7-methoxynaphthalen-1-yl)ethyl)-N-methylpropan-1-amine], for which the results for the EC50 at 5-HT2A, on 5-HT2C and on 5-HT2B were 125 nM, 79 nM and greater than 10000 nM, respectively. Further, the results for the Emax on 5-HT2A (setting [1]), on 5-HT2C (setting [1]) and on 5-HT2B (setting [2]) were 81%, 95% and 24%, respectively.

`CN(C)CCc1cccc2cccc(O)c12` [Example I-21, 8-(2-(dimethylamino)ethyl)naphthalen-1-ol]: the Emax at 5-HT2A (setting [1]) was found to be 73%; on 5-HT2C (setting [1]), 90%. In addition, the EC50 stood at 53 nM at 5-HT2A (setting [3]) and 12 nM on 5-HT2C.

Take `CN(CCc1cccc2ccc(F)cc12)C1CC1` [Example I-41, N-(2-(7-fluoronaphthalen-1-yl)ethyl)-N-methylcyclopropanamine]: the Emax on 5-HT2A (setting [1]) was found to be 33%; at 5-HT2C (setting [1]), 80%. Also, the EC50 stood at 1020 nM on 5-HT2A (setting [3]) and 150 nM at 5-HT2C (setting [4]).

On to `CN(C)CCc1cccc2ccc(F)cc12` [Example I-38, 2-(7-fluoronaphthalen-1-yl)-N,N-dimethylethan-1-amine], for which the EC50 on 5-HT2A turned out to be 245 nM; on 5-HT2C, 46 nM. Further, the Emax on 5-HT2A (setting [1]) was 66%; on 5-HT2C (setting [1]), 83%.

As for `COc1cccc2c(CCN(C)C)cccc12` [Example I-50, 2-(5-methoxynaphthalen-1-yl)-N,N-dimethylethan-1-amine], the Emax at 10 µM at 5-HT2A (HEK293, @ 10 uM, no EC50 value given, read-out: 5-HT2A Emax (%) printed as % @ 10 uM) was 28%.

For the compound `COc1cccc2c(CCN)cccc12` [Example I-52, 2-(5-methoxynaphthalen-1-yl)ethan-1-amine], the values for the EC50 on 5-HT2A and on 5-HT2C were 295 nM and 289 nM, respectively. Further, the Emax on 5-HT2A (setting [1]) was 79%; on 5-HT2C (setting [1]), 91%.

For `CCN(C)CCc1cccc2ccccc12` [Example I-33, N-ethyl-N-methyl-2-(naphthalen-1-yl)ethan-1-amine], the EC50 on 5-HT2A turned out to be 204 nM; on 5-HT2C, 115 nM. Moreover, the Emax turned out to be 58% at 5-HT2A (setting [1]) and 67% on 5-HT2C (setting [1]).
